# Experimental data published in patent US20240246964A1 (Arbutus Biopharma Corporation, priority 2021, published 2024).
# pEC50: −log10 of the molar value.
# Target: human PD-L1 (Homo sapiens (Human), UniProt Q9NZQ7)
# Test: T cell activation luciferase reporter cell culture system (T Cell Activation Assay)
# Assay type: cell-based
# Settings: luciferase reporter assay; PD-L1 aAPC/CHO-K1 cells with PD-1 effector Jurkat T cells
# human PD-L1, sequence (Q9NZQ7 19-290): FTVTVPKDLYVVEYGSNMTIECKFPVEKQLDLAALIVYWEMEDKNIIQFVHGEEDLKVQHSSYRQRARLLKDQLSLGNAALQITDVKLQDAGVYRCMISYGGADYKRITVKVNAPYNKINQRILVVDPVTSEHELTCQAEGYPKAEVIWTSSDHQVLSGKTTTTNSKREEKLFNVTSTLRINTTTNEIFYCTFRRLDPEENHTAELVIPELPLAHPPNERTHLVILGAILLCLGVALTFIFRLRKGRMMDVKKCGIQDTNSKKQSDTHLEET
row,pEC50,SMILES
1,7.50,"COc1cc(-c2nccc(-c3cccc(-c4ccc(CNC5CCN(C(=O)CO)CC5)c(OC)n4)c3Cl)c2Cl)ccc1CN[C@H]1CC[C@H](O)CC1 [Example 539, 1-(4-(((6-(2-Chloro-3-(3-chloro-2-(4-((((1r,4r)-4-hydroxycyclohexyl)amino)methyl)-3-methoxyphenyl)pyridin-4-yl)phenyl)-2-methoxypyridin-3-yl)methyl)amino)piperidin-1-yl)-2-hydroxyethan-1-one]"
2,7.67,"COc1nc(O[C@H]2CCc3c(-c4nccc(-c5ccc6c(CNC[C@@H]7CCC(=O)N7)cn(C)c6n5)c4Cl)cccc32)c(C(F)(F)F)cc1CNC[C@@H]1CCC(=O)N1 [Example 545, (S)-5-((((6-(3-Chloro-2-((S)-1-((6-methoxy-5-(((((S)-5-oxopyrrolidin-2-yl)methyl)amino)methyl)-3-(trifluoromethyl)pyridin-2-yl)oxy)-2,3-dihydro-1H-inden-4-yl)pyridin-4-yl)-1-methyl-1H-pyrrolo[2,3-b]pyridin-3-yl)methyl)amino)methyl)pyrrolidin-2-one]"
3,7.28,"COc1nc(-c2ccnc(-c3cccc4c3CC[C@@H]4Oc3nc(OC)c(CNC[C@H](C)O)cc3C(F)(F)F)c2Cl)ccc1CN1CC2(CNC(=O)C2)C1 [Example 553, 2-((3′-Chloro-2′-((S)-1-((5-((((S)-2-hydroxypropyl)amino)methyl)-6-methoxy-3-(trifluoromethyl)pyridin-2-yl)oxy)-2,3-dihydro-1H-inden-4-yl)-6-methoxy-[2,4′-bipyridin]-5-yl)methyl)-2,6-diazaspiro[3.4]octan-7-one]"
4,6.99,"COc1cc(-c2ncnc(-c3cccc(-c4ccc(CN5CC6(CNC(=O)C6)C5)c(OC)n4)c3Cl)c2Cl)ccc1CN1CC2(CNC(=O)C2)C1 [Example 554, 2-((6-(2-chloro-3-(5-chloro-6-(3-methoxy-4-((7-oxo-2,6-diazaspiro[3.4]octan-2-yl)methyl)phenyl)pyrimidin-4-yl)phenyl)-2-methoxypyridin-3-yl)methyl)-2,6-diazaspiro[3.4]octan-7-one]"
5,6.42,"COc1cc(-c2nccc(-c3cccc(-c4ccc5c(CNCC6CCOCC6)cn(C)c5n4)c3Cl)c2Cl)ccc1CNC1CCN(C(C)=O)CC1 [Example 557, 1-(4-((4-(3-chloro-4-(2-chloro-3-(1-methyl-3-((((tetrahydro-2H-pyran-4-yl)methyl)amino)methyl)-1H-pyrrolo[2,3-b]pyridin-6-yl)phenyl)pyridin-2-yl)-2-methoxybenzyl)amino)piperidin-1-yl)ethan-1-one]"
6,≤ 5.00,"COc1cc(-c2nccc(-c3cccc(-c4ccc5c(CNC6CCS(=O)(=O)CC6)cn(C)c5n4)c3Cl)c2Cl)ccc1CNC1CCN(C(C)=O)CC1 [Example 558, 1-(4-((4-(3-Chloro-4-(2-chloro-3-(3-(((1,1-dioxidotetrahydro-2H-thiopyran-4-yl)amino)methyl)-1-methyl-1H-pyrrolo[2,3-b]pyridin-6-yl)phenyl)pyridin-2-yl)-2-methoxybenzyl)amino)piperidin-1-yl)ethan-1-one]"
7,≤ 5.00,"COc1nc(-c2cccc(-c3ccnc(-c4ccc5c(c4)S(=O)(=O)CCN(C)C5)c3Cl)c2Cl)ccc1CNC[C@@H]1CCC(=O)N1 [Example 561, (S)-5-((((6-(2-Chloro-3-(3-chloro-2-(4-methyl-1,1-dioxido-2,3,4,5-tetrahydrobenzo[f][1,4]thiazepin-8-yl)pyridin-4-yl)phenyl)-2-methoxypyridin-3-yl)methyl)amino)methyl)pyrrolidin-2-one]"
8,≤ 5.00,"COc1cc(-c2ncnc(-c3cccc(-c4ccc(CN5CCN(C(C)=O)CC5)c(OC)n4)c3Cl)c2Cl)ccc1CN1CCN(C(C)=O)CC1 [Example 562, 1-(4-((6-(3-(6-(4-((4-acetylpiperazin-1-yl)methyl)-3-methoxyphenyl)-5-chloropyrimidin-4-yl)-2-chlorophenyl)-2-methoxypyridin-3-yl)methyl)piperazin-1-yl)ethan-1-one]"
9,6.73,"COc1cc(-c2ncnc(-c3cccc(-c4ccc(CN5CC6(CC(O)C6)C5)c(OC)n4)c3Cl)c2Cl)ccc1CN1CC2(CC(O)C2)C1 [Example 568, 2-((6-(2-chloro-3-(5-chloro-6-(4-((6-hydroxy-2-azaspiro[3.3]heptan-2-yl)methyl)-3-methoxyphenyl)pyrimidin-4-yl)phenyl)-2-methoxypyridin-3-yl)methyl)-2-azaspiro[3.3]heptan-6-ol]"
10,7.06,"COc1cc(-c2nccc(-c3cccc(-c4ccc(CN5CC6(CC(=O)N(C)C6)C5)c(OC)n4)c3Cl)c2Cl)ccc1CN1CC2(CC(=O)N(C)C2)C1 [Example 571, 2-(4-(3-chloro-4-(2-chloro-3-(6-methoxy-5-((6-methyl-7-oxo-2,6-diazaspiro[3.4]octan-2-yl)methyl)pyridin-2-yl)phenyl)pyridin-2-yl)-2-methoxybenzyl)-6-methyl-2,6-diazaspiro[3.4]octan-7-one]"
11,≤ 5.00,"COc1cc(-c2nccc(-c3cccc(-c4ccc(CN5CC6(CNC(=O)C6)C5)c(OC)n4)c3C(F)(F)F)c2Cl)ccc1CN1CC2(CNC(=O)C2)C1 [Example 576, 2-((6-(3-(3-chloro-2-(3-methoxy-4-((7-oxo-2,6-diazaspiro[3.4]octan-2-yl)methyl)phenyl)pyridin-4-yl)-2-(trifluoromethyl)phenyl)-2-methoxypyridin-3-yl)methyl)-2,6-diazaspiro[3.4]octan-7-one]"
12,≤ 5.00,"COc1cc(-c2nccc(-c3cccc(-c4ccc(CN5CC6(C5)CN(C(C)=O)C6)c(OC)n4)c3C(F)(F)F)c2Cl)ccc1CN1CC2(C1)CN(C(C)=O)C2 [Example 577, 1-(6-((6-(3-(2-(4-((6-Acetyl-2,6-diazaspiro[3.3]heptan-2-yl)methyl)-3-methoxyphenyl)-3-chloropyridin-4-yl)-2-(trifluoromethyl)phenyl)-2-methoxypyridin-3-yl)methyl)-2,6-diazaspiro[3.3]heptan-2-yl)ethan-1-one]"
13,≤ 5.00,"COc1cc(-c2nccc(-c3cccc(-c4ccc(CNC[C@H](C)O)c(OC)n4)c3C(F)(F)F)c2Cl)ccc1CNC[C@H](C)O [Example 580, (S)-1-(((6-(3-(3-Chloro-2-(4-((((S)-2-hydroxypropyl)amino)methyl)-3-methoxyphenyl)pyridin-4-yl)-2-(trifluoromethyl)phenyl)-2-methoxypyridin-3-yl)methyl)amino)propan-2-ol]"
14,7.37,"COc1cc(-c2ncnc(-c3cccc(-c4ccc(CNCCO)c(OC)n4)c3Cl)c2Cl)ccc1CNCCO [Example 581, 2-(((6-(2-chloro-3-(5-chloro-6-(4-(((2-hydroxyethyl)amino)methyl)-3-methoxyphenyl)pyrimidin-4-yl)phenyl)-2-methoxypyridin-3-yl)methyl)amino)ethan-1-ol]"
15,≤ 5.00,"CCOc1cc(-c2nccc(-c3cccc(-c4ccc(CNC5CCN(C(C)=O)CC5)c(OC)n4)c3Cl)c2Cl)cn2nc(CN[C@H]3CC[C@H](O)CC3)nc12 [Example 583, 1-(4-(((6-(2-Chloro-3-(3-chloro-2-(8-ethoxy-2-((((1r,4r)-4-hydroxycyclohexyl)amino)methyl)-[1,2,4]triazolo[1,5-a]pyridin-6-yl)pyridin-4-yl)phenyl)-2-methoxypyridin-3-yl)methyl)amino)piperidin-1-yl)ethan-1-one]"
16,≤ 5.00,"CCOc1cc(-c2nccc(-c3cccc(-c4ccc(CNC5CCN(C(C)=O)CC5)c(OC)n4)c3Cl)c2Cl)cn2nc(CNC3CCN(C(C)=O)CC3)nc12 [Example 585, 1-(4-(((6-(4-(3-(5-(((1-Acetylpiperidin-4-yl)amino)methyl)-6-methoxypyridin-2-yl)-2-chlorophenyl)-3-chloropyridin-2-yl)-8-ethoxy-[1,2,4]triazolo[1,5-a]pyridin-2-yl)methyl)amino)piperidin-1-yl)ethan-1-one]"
17,6.69,"CCOc1cc(-c2nccc(-c3cccc(-c4ccc(CNC5CCN(C(C)=O)CC5)c(OC)n4)c3Cl)c2Cl)cn2nc(CN3CC4(CNC(=O)C4)C3)nc12 [Example 586, 2-((6-(4-(3-(5-(((1-Acetylpiperidin-4-yl)amino)methyl)-6-methoxypyridin-2-yl)-2-chlorophenyl)-3-chloropyridin-2-yl)-8-ethoxy-[1,2,4]triazolo[1,5-a]pyridin-2-yl)methyl)-2,6-diazaspiro[3.4]octan-7-one]"
18,≤ 5.00,"COc1cc(-c2nccc(-c3cccc(-c4ccc(CN[C@H]5CC[C@H](O)CC5)c(OC)n4)c3C(F)(F)F)c2Cl)ccc1CN[C@H]1CC[C@H](O)CC1 [Example 588, (1r,4r)-4-(((6-(3-(3-Chloro-2-(4-((((1r,4r)-4-hydroxycyclohexyl)amino)methyl)-3-methoxyphenyl)pyridin-4-yl)-2-(trifluoromethyl)phenyl)-2-methoxypyridin-3-yl)methyl)amino)cyclohexan-1-ol]"
19,≤ 5.00,"COc1cc(-c2ncnc(-c3cccc(-c4ccc(CN5CC6(C5)CN(C(C)=O)C6)c(OC)n4)c3Cl)c2Cl)ccc1CN1CC2(C1)CN(C(C)=O)C2 [Example 589, 1-(6-((6-(3-(6-(4-((6-Acetyl-2,6-diazaspiro[3.3]heptan-2-yl)methyl)-3-methoxyphenyl)-5-chloropyrimidin-4-yl)-2-chlorophenyl)-2-methoxypyridin-3-yl)methyl)-2,6-diazaspiro[3.3]heptan-2-yl)ethan-1-one]"
20,5.92,"COc1cc(-c2nccc(-c3cccc(NC(=O)c4ccc(CN5CC6(CNC(=O)C6)C5)cn4)c3C)c2Cl)ccc1CN1CC2(CNC(=O)C2)C1 [Example 590, N-(3-(3-Chloro-2-(3-methoxy-4-((7-oxo-2,6-diazaspiro[3.4]octan-2-yl)methyl)phenyl)pyridin-4-yl)-2-methylphenyl)-5-((7-oxo-2,6-diazaspiro[3.4]octan-2-yl)methyl)picolinamide]"
21,7.06,"COc1cc(-c2ncnc(-c3cccc(-c4ccc(CN[C@H]5C[C@@H](O)C5)c(OC)n4)c3Cl)c2Cl)ccc1CN[C@H]1C[C@@H](O)C1 [Example 592, (1s,3s)-3-(((6-(2-Chloro-3-(5-chloro-6-(4-((((1s,3s)-3-hydroxycyclobutyl)amino)methyl)-3-methoxyphenyl)pyrimidin-4-yl)phenyl)-2-methoxypyridin-3-yl)methyl)amino)cyclobutan-1-ol]"
